# Laboratory results taken from US11571418B2, “Platinum compounds that inhibit constitutive STAT3 signaling and induce cell cycle arrest and apoptosis of malignant cells” (H. LEE MOFFITT CANCER CENTER AND RESEARCH INSTITUTE, INC., priority 2011, dated 2023).
# Biological target: T1, Stat1 (Mus musculus, UniProt P42225)
# T1 construct: Nuclear extract preparation from NIH3T3 stimulated by rhIL-6, NIH3T3/hEGFR stimulated by rhEGF; endogenous in cells; host or cells: NIH3T3/hEGFR fibroblasts stimulated with rhEGF (nuclear extract)
# T1 sequence (P42225 2-749 limits assumed): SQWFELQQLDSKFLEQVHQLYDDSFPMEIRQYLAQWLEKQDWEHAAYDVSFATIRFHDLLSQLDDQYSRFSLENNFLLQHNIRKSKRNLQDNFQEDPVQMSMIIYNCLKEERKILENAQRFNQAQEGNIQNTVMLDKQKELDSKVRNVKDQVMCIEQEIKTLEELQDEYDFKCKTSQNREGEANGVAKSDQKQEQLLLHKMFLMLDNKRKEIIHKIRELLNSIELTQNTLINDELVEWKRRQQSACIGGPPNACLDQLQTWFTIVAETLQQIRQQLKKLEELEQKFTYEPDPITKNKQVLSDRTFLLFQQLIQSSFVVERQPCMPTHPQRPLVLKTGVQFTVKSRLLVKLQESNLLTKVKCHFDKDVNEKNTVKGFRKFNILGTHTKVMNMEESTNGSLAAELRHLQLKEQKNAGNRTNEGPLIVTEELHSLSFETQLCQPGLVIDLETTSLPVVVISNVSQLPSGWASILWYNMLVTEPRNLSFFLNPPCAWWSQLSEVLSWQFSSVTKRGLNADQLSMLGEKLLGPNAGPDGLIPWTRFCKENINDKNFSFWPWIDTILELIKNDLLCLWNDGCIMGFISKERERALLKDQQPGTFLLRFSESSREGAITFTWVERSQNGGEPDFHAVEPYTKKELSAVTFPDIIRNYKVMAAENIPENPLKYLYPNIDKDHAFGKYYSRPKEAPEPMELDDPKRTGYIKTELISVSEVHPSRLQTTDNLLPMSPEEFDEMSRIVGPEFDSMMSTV
# Assay: In vitro Stat1 DNA-binding activity assay, EMSA with hSIE or MGFe probe
# Protocol: FIGS. 1A-1E. Inhibition of in vitro Stat3 DNA-binding activity by a platinum complex. Nuclear extracts or cell lysates containing activated Stat1, Stat3 and Stat5, or E2F1 prepared from NIH3T3/hEGFR that are stimulated with EGF or Sf-9 insect cells that are infected with baculovirus expressing Stat1, Stat3, Stat5, or E2F1, respectively, were treated with or without the indicated concentrations of platinum complex, PLATINUM-401 or Cisplatin, for 30 min at room temperature prior to incubation with radiolabeled oligonucleotide probes, and subjected to EMSA analysis. (FIG. 1A) (i) Stat1 and Stat3 binding activities to hSIE probe, (ii) Stat1 and Stat5 binding activities to MGFe probe, and (iii) plot of % oligonucleotide probe-STAT:STAT complexes versus concentration of PLATINUM-401. […] Positions of STAT: STAT-DNA complexes in gel are labeled. In (A) to (C), the control lanes represent DMSO (vehicle)-treatment.
# Nuclear extract preparation and gel shift assays—Nuclear extract preparation from NIH3T3 stimulated by rhIL-6, NIH3T3/hEGFR stimulated by rhEGF, v-Src-transformed fibroblasts (NIH3T3/v-Src) or tumor cell lines and electrophoretic mobility shift assay were carried out as previously described (Turkson et al., 1998; Garcia et al., 1997; Yu et al., 1995). The ^32P-labeled oligonucleotide probes used are hSIE (high affinity sis-inducible element from the c-fos gene, m67 variant, 5′-[…]) (SEQ ID NO:1) that binds Stat1 and Stat3 (Garcia et al., 1997; Wagner et al., 1990) and MGFe (mammary gland factor element from the bovine β-casein gene promoter, 5′-AGATTTCTAGGAATTCAA) (SEQ ID NO:2) for Stat1 and Stat5 binding (49,50). Except where indicated, inhibitor compound was pre-incubated with the nuclear extract for 30 min at room temperature prior to incubation with radiolabeled probe.
# Compounds from the NCI 2000 diversity set were screened for inhibition of Stat3 signaling in an in vitro DNA-binding activity assay based on analysis by electrophoretic mobility shift assay (EMSA). […]
structure (smiles),measurement,setting,value
CC(O)CN1CCN(CC(C)O)CC1 (centres unmarked) [PLATINUM-401],IC50,,4.1 µM
same,effect on DNA-binding activity of Stat1:Stat1 homodimer,pre-incubated 30 min before probe,to a lesser extent
